Consider three compounds from patent publication US11345895B2, “Induction of arterial-type of hemogenic endothelium (AHE) and enhancement of T cell production from PSCs through overexpression of ETS factors or modulating MAPK/ERK signalling pathways” (Wisconsin Alumni Research Foundation, priority 2016, dated 2022).

Holding throughout (assay type): cell-based, human
Experiment [1] has as its system DLL4+ arterial type HE from hPSCs. Nature of the experiment: Arterial HE specification in hESC differentiation cultures with modulation of MAPK/ERK signaling (flow cytometry). The conditions noted are these: differentiation cultures treated on days 3 through day 6; LY294002 2 μM, U0126 1 μM. Background: In flow cytometry, cells or beads pass a laser one at a time.
Protocol: (§2) To determine whether modulating MAPK/ERK signaling affects arterial specification of HE from hPSCs, we treated differentiation cultures on days 3 through day 6 with PI3K inhibitor LY294002, or MEK1 and MEK2 inhibitor U0126 (FIG. 6A).
H1 hESC line, the iETS1 H1 hESC line and the tdTomato H1 hESCs line were maintained on Matrigel™ in mTeSR1™ medium. Cells were passaged every 3-4 days using 0.5 mM EDTA in PBS. The hESC lines were differentiated on ColIV coated plate as previously described in details^26.
(§3) MAPK/ERK pathway was activated using LY294002 (2 μM, Cayman Chemicals) and was inhibited using U0126 (1 μM, Cayman Chemicals)
In experiment [2] the test system is CD235a/CD41a-CD45+ hematopoietic progenitors from hESCs. In words: Hematopoietic progenitor production and hematopoietic CFC assay after modulation of MAPK/ERK signaling. The conditions noted are these: ERK pathway activated (LY294002 2 μM) or inhibited (U0126 1 μM), days 3-6.
Protocol: as §2, §3
In experiment [3] the test system is T lymphoid potential of hESC cultures. In words: T cell differentiation on OP9-DLL4 after LY294002 or U0126 treatment. The conditions noted are these: cultures treated with LY294002 2 μM or U0126 1 μM.
Protocol: as §2
T cell differentiation of hESC-derived hematopoietic precursors was performed on the OP9−DLL4 in T cell differentiated medium consisting of α-MEM (Gibco) supplemented with 20% FBS (Hyclone), 5 ng/ml FLT3L, 5 ng/ml IL-7 and 10 ng/ml SCF (all from PeproTech) as described previously^26. […] Cultures were fed with complete media changes weekly.
as §3
The test system of experiment [4] is NOTCH signaling in iETS1 hESC cultures. In words: Hematopoiesis following ETS1 upregulation in the presence of NOTCH signaling blockade. The conditions noted are these: DOX-treated iETS1 hESC cultures; DAPT 10 μM, DLL4 blocking antibody 10 μg/ml. An excerpt: To confirm the role of NOTCH activation in promoting definitive hematopoiesis by ETS1, we evaluated hematopoiesis following ETS1 upregulation in the presence of NOTCH signaling inhibitor DAPT, and DLL4 neutralizing antibodies (FIG. 4E).
(§1) HB-CFCs were detected as described previously^54. HB-CFCs were detected using the semisolid colony-forming serum-free medium (CF-SFM) containing 40% ES-Cult M3120 methylcellulose (2.5% solution in IMDM, Stem Cell Technologies), 25% StemSpan™ serum-free expansion medium (SFEM, Stem Cell Technologies), 25% human endothelial serum-free medium (ESFM, Invitrogen), 10% BIT 9500 supplement (Stem Cell Technologies), GlutaMAX™ (1/100 dilution, Invitrogen), Ex-Cyte™ (1/1000 dilution, Millipore), 100 μM MTG, 50 μg/ml ascorbic acid and 20 ng/ml FGF (Peprotech). Hematopoietic CFCs were detected using serum containing H4435 MethoCult with FGF, SCF, IL-3, IL-6 and EPO (Stem Cell Technologies).
Cells were analyzed using MACSQuant Analyzer (Miltenyi Biotec) and FlowJo software (Tree star).
Notch signaling was blocked by DAPT (γ-secretase inhibitor/GSI, 10 μM, Cayman Chemicals) or DLL4 blocking antibody (10 μg/ml, Creative BioLabs)

Experiment [5] deals with iETS1-hESCs (H1, DOX-inducible ETS1 transgene). In words: Primitive and definitive hematopoiesis from DOX-treated iETS1-hESCs (HB-CFC, HE, T cell, RBC cultures). The conditions noted are these: CD43+ cells subcultured on OP9-DLL4. The protocol: To define which type of hematopoiesis is affected by ETS1 overexpression, we evaluated the effect of DOX treatment on i) hemangioblast (HB) CFCs that reflect the primitive wave of hematopoiesis^37, 38 and ii) on T lymphocytes and β-hemoglobin-producing red blood cells that reflect definitive hematopoiesis (FIG. 3A)^37, 39. […] This effect was more profound when cultures were treated with DOX from day 0 through day 3 to ensure maximum ETS1 overexpression on day 3 (FIG. 3B and FIGS. 9B-9C). […] To determine the effect of ETS1 upregulation on T cell potential, we collected CD43^+ cells from DOX+ and DOX− cultures and subcultured on OP9−DLL4 stromal cells. […]
as §1, with “Technologies). […]” for “Technologies).”

Take `N#CC(=C(/N)Sc1ccccc1N)/C(C#N)=C(\N)Sc1ccccc1N` [U0126]: the “production of DLL4+ arterial type HE, including the DLL4+CXCR4+ fraction” value in experiment [1] is recorded as “almost completely abrogated formation”. Also, in experiment [2], the “production of multipotent CD235a/CD41a-CD45+ hematopoietic progenitors and CFC potential” value is “abrogated production”. The T lymphoid potential entry in experiment [3] is listed as “entirely abrogated”.

Take `C[C@H](NC(=O)Cc1cc(F)cc(F)c1)C(=O)N[C@H](C(=O)OC(C)(C)C)c1ccccc1` [DAPT]: in experiment [4], the “effect of ETS1 upregulation on hematopoiesis (blood production and CFC potential)” value is listed as “abrogated effect”.

Take `C[C@H]1c2cccc(O)c2C(=O)C2=C(O)[C@]3(O)C(=O)C(C(N)=O)=C(O)[C@@H](N(C)C)[C@@H]3[C@@H](O)[C@@H]21` [DOX, doxycycline]: the “number of T lymphoid cells per 10^4 of CD43 cells, DOX+ versus DOX- cultures” value in experiment [5] is around 8 fold.
